From paper PMC6790288 (The journal of pain : official journal of the American Pain …, 2019)
Where two headings read alike, the source gives them in different places.

Legend:
[1] = cited from earlier work
cold-induced pain = assay: Cold pressor test; assay type: in vivo, human
healthy participants [2] = assay: Abuse liability visual analog scales; assay type: in vivo, human; conditions: trial A, n = 43, 0–100 mm VAS after seventh dose, M (SD)
pupil diameter = assay: Pupillometry; assay type: in vivo, human; conditions: trial A; for Pupil diameter, predose: before first dose of segment
healthy participants [3] = assay: Drug-related adverse events
[4] = 12 participants, 5 days rifampicin, 100 mg oral tramadol; cited from earlier work
[5] = for (+)-M1 Cssmax 90% CI (bioequivalence ratio desmetramadol vs tramadol) / (+)-M1 Cssmin 90% CI (bioequivalence ratio desmetramadol vs tramadol) / (−)-M1 Cssmax 90% CI (bioequivalence ratio desmetramadol vs tramadol) / (−)-M1 Cssmin 90% CI (bioequivalence ratio desmetramadol vs tramadol): bioequivalent if within .80 to 1.25
healthy participants [6] = assay: Respiratory rate; conditions: trial B (with paroxetine), n = 60; MPD (SD)
[7] = in vivo, po; cited from earlier work
μ-opioid receptor = conditions: read-out: μ-opioid receptor affinity (Ki); in vitro, racemic M5; cited from earlier work
[8] = target: norepinephrine transporter; conditions: read-out: norepinephrine transporter Ki; in vitro functional potency; cited from earlier work
[9] = system: serotonin reuptake transporter; conditions: cited from earlier work
[10] = trial A, listed as desmetramadol

In the case of `CN(C)C[C@H]1CCCC[C@]1(O)c1cccc(O)c1` [Desmetramadol, O-desmethyltramadol], the “lethal M1 blood concentrations exceed therapeutic levels” value [1] is listed as at most 50 fold, the “average duration of tolerance to pain” value (cold-induced pain; trial A) is listed as 63 s and the “tolerance to pain, mean paired increase relative to placebo” value (cold-induced pain; trial A, mean [SE]) is listed as 12.6 [3.8] seconds. The “pain tolerated longer after desmetramadol than after tramadol” value (cold-induced pain; trial B (with paroxetine), male participants) was 44%, the “tolerance to pain, mean paired increase relative to placebo” value (cold-induced pain; trial B (with paroxetine), male participants, mean [SE]) was 9.9 [1.9] seconds and the “change in paired cold-induced pain scores at 30 seconds compared with placebo” value (cold-induced pain; trial B (with paroxetine), male population n = 42, mean [SE]) was “−.75 [.28] 0−10 VAS”. For the same molecule, the Drug liking-disliking (healthy participants [2]) was 47 (25) mm, the “Strength of drug effect” value (healthy participants [2]) was 29 (28) mm and the Take drug again (healthy participants [2]) was 43 (26) mm. For the same molecule, the “Strength of drug effect” value (healthy participants [2]; listed as desmetramadol) was 29 [28] mm, the “pupil diameter, mean paired reduction compared with placebo” value (pupil diameter; after dosing, mean (SD)) was −1.1 (.8) mm and the “Pupil diameter, after seventh dose” value (pupil diameter; n = 43, M (SD)) was 5.1 (1.2) mm. The “Pupil diameter, predose” value (pupil diameter; n = 43, M (SD)) was 6.0 (1.1) mm, the “Pupil diameter, predose” value (pupil diameter; n = 43, M (SD), listed as desmetramadol) was 6.0 [1.1] mm and the Deaths (healthy participants [3]; trial A) was 0(0) n (%). For the same molecule, the “Severe AEs” value (healthy participants [3]; trial A) was 0 (0) n (%), the “participants reporting drug-related AEs” value (healthy participants [3]; trial A) was 44% and the Dizziness (healthy participants [3]; trial A, all) was 6(14) n (%). For the same molecule, the Euphoria (healthy participants [3]; trial A, all) was 0 (0) n (%), the Feel abnormal (healthy participants [3]; trial A, all) was 0 (0) n (%) and the Feel hot (healthy participants [3]; trial A, all) was 0 (0) n (%). The Headache (healthy participants [3]; trial A, all) was 3 (7) n (%), the Nausea (healthy participants [3]; trial A, all) was 8(19) n (%) and the Presyncope (healthy participants [3]; trial A, all) was 0 (0) n (%). For the same molecule, the Pruritus (healthy participants [3]; trial A, all) was 3 (7) n (%), the Somnolence (healthy participants [3]; trial A, all) was 3 (7) n (%) and the Spasticity (healthy participants [3]; trial A, all) was 0 (0) n (%). The Sweating (healthy participants [3]; trial A, all) was 0 (0) n (%), the Vomiting (healthy participants [3]; trial A, all) was 1 (2) n (%) and the Dizziness (healthy participants [3]; trial A, male) was 6(14) n (%). For the same molecule, the Euphoria (healthy participants [3]; trial A, male) was 0 (0) n (%), the Feel abnormal (healthy participants [3]; trial A, male) was 0 (0) n (%) and the Feel hot (healthy participants [3]; trial A, male) was 0 (0) n (%). For the same molecule, the Headache (healthy participants [3]; trial A, male) was 3 (7) n (%), the Nausea (healthy participants [3]; trial A, male) was 8(19) n (%) and the Presyncope (healthy participants [3]; trial A, male) was 0 (0) n (%). The Pruritus (healthy participants [3]; trial A, male) was 3 (7) n (%), the Somnolence (healthy participants [3]; trial A, male) was 3 (7) n (%) and the Spasticity (healthy participants [3]; trial A, male) was 0 (0) n (%). For the same molecule, the Sweating (healthy participants [3]; trial A, male) was 0 (0) n (%), the Vomiting (healthy participants [3]; trial A, male) was 1 (2) n (%) and the “All drug-related AEs” value (healthy participants [3]; trial A, n = 43 (all male)) was 19 (44) n (%). For the same molecule, the Deaths (healthy participants [3]; trial B) was 0 (0) n (%), the “Severe AEs” value (healthy participants [3]; trial B) was 0 (0) n (%) and the “participants reporting drug-related AEs” value (healthy participants [3]; trial B (with paroxetine)) was 67%. For the same molecule, the “All drug-related AEs” value (healthy participants [3]; trial B (with paroxetine), n = 60) was 40 (67) n (%), the Dizziness (healthy participants [3]; trial B, all) was 12 (20) n (%) and the Euphoria (healthy participants [3]; trial B, all) was 2 (3) n (%). For the same molecule, the Feel abnormal (healthy participants [3]; trial B, all) was 3 (5) n (%), the Feel hot (healthy participants [3]; trial B, all) was 3 (5) n (%) and the Headache (healthy participants [3]; trial B, all) was 10(17) n (%). The Nausea (healthy participants [3]; trial B, all) was 16(27) n (%), the Presyncope (healthy participants [3]; trial B, all) was 6(10) n (%) and the Pruritus (healthy participants [3]; trial B, all) was 4 (7) n (%). The Somnolence (healthy participants [3]; trial B, all) was 10(17) n (%), the Spasticity (healthy participants [3]; trial B, all) was 3 (5) n (%) and the Sweating (healthy participants [3]; trial B, all) was 2 (3) n (%). For the same molecule, the Vomiting (healthy participants [3]; trial B, all) was 9(15) n (%), the Dizziness (healthy participants [3]; trial B, female) was 5 (28) n (%) and the Euphoria (healthy participants [3]; trial B, female) was 1 (6) n (%). For the same molecule, the Feel abnormal (healthy participants [3]; trial B, female) was 1 (6) n (%), the Feel hot (healthy participants [3]; trial B, female) was 1 (6) n (%) and the Headache (healthy participants [3]; trial B, female) was 6(33) n (%). For the same molecule, the Nausea (healthy participants [3]; trial B, female) was 5 (28) n (%), the Presyncope (healthy participants [3]; trial B, female) was 3(17) n (%) and the Pruritus (healthy participants [3]; trial B, female) was 3(17) n (%). For the same molecule, the Somnolence (healthy participants [3]; trial B, female) was 6(33) n (%), the Spasticity (healthy participants [3]; trial B, female) was 0 (0) n (%) and the Sweating (healthy participants [3]; trial B, female) was 0 (0) n (%). The Vomiting (healthy participants [3]; trial B, female) was 3(17) n (%), the Dizziness (healthy participants [3]; trial B, male) was 7(17) n (%) and the Euphoria (healthy participants [3]; trial B, male) was 1 (2) n (%). For the same molecule, the Feel abnormal (healthy participants [3]; trial B, male) was 2 (5) n (%), the Feel hot (healthy participants [3]; trial B, male) was 2 (5) n (%) and the Headache (healthy participants [3]; trial B, male) was 4(10) n (%). For the same molecule, the Nausea (healthy participants [3]; trial B, male) was 11 (26) n (%), the Presyncope (healthy participants [3]; trial B, male) was 3 (7) n (%) and the Pruritus (healthy participants [3]; trial B, male) was 1 (2) n (%). For the same molecule, the Somnolence (healthy participants [3]; trial B, male) was 4(10) n (%), the Spasticity (healthy participants [3]; trial B, male) was 3 (7) n (%) and the Sweating (healthy participants [3]; trial B, male) was 2 (5) n (%). For the same molecule, the Vomiting (healthy participants [3]; trial B, male) was 6(14) n (%), the “decrease of AUC by rifampicin induction” value [4] was 54% and the “increase of M1 formation rate by rifampicin induction” value [4] was 12%. The “change of (+)-M1 Cssmax, trial B (paroxetine) compared with trial A” value ([5]; steady state plasma) was 41%, the “change of (+)-M1 Cssmin, trial B (paroxetine) compared with trial A” value ([5]; steady state plasma) was 46% and the “(−)-M1 Cssmin and Cssmax lower for desmetramadol compared with tramadol” value ([5]; trial A) was 30%. The “mean (+)-M1 in the poor metabolizer” value ([5]; trial A, CYP2D6 poor metabolizer) was 41 ng/mL, the “mean (+)-M1 in the ultrarapid metabolizer” value ([5]; trial A, CYP2D6 ultrarapid metabolizer) was 22 ng/mL and the “increase of mean desmetramadol (+)-M1 compared with tramadol (+)-M1” value ([5]; trial A, poor metabolizer) was 650%. For the same molecule, the “decrease of mean desmetramadol (+)-M1 compared with tramadol (+)-M1” value ([5]; trial A, ultrarapid metabolizer) was 40%, the “(+)-M1 Cssmax 90% CI (bioequivalence ratio desmetramadol vs tramadol)” value ([5]; trial A) was “.88–1.13” and the “(+)-M1 Cssmin 90% CI (bioequivalence ratio desmetramadol vs tramadol)” value ([5]; trial A) was “.85–1.08”. For the same molecule, the “(−)-M1 Cssmax 90% CI (bioequivalence ratio desmetramadol vs tramadol)” value ([5]; trial A) was “.67-.76”, the “(−)-M1 Cssmin 90% CI (bioequivalence ratio desmetramadol vs tramadol)” value ([5]; trial A) was “.69-.76” and the “(+)-M1 Cssmax 90% CI (bioequivalence ratio desmetramadol vs tramadol)” value [5, 10] was “.88 −1.13”. The “(+)-M1 Cssmin 90% CI (bioequivalence ratio desmetramadol vs tramadol)” value [5, 10] was “.85−1.08”, the “(−)-M1 Cssmax 90% CI (bioequivalence ratio desmetramadol vs tramadol)” value [5, 10] was “.67 −.76” and the “(−)-M1 Cssmin 90% CI (bioequivalence ratio desmetramadol vs tramadol)” value [5, 10] was “.69−.76”. The “desmetramadol (+)-M1 Cssmin and Cssmax exceed corresponding tramadol values” ([5]; trial B (with paroxetine)) was 3.5 fold, the “(+)-M1 Cssmax 90% CI (bioequivalence ratio desmetramadol vs tramadol)” value ([5]; trial B (with paroxetine)) was 3.4–4.3 and the “(+)-M1 Cssmin 90% CI (bioequivalence ratio desmetramadol vs tramadol)” value ([5]; trial B (with paroxetine)) was 3.4–4.3. For the same molecule, the “(−)-M1 Cssmax 90% CI (bioequivalence ratio desmetramadol vs tramadol)” value ([5]; trial B (with paroxetine)) was “.93–1.07”, the “(−)-M1 Cssmin 90% CI (bioequivalence ratio desmetramadol vs tramadol)” value ([5]; trial B (with paroxetine)) was “.95–1.09” and the “increase of steady-state (−)-M1 by paroxetine” value ([5]; trial B vs trial A) was “approximately 15%”. For the same molecule, the “increase of plasma (+)-M1 by paroxetine” value ([5]; trial B vs trial A, steady state) was “approximately 40%” and the “Average postdose respiratory rate, mean paired difference versus placebo” value (healthy participants [6]) was “−.30 [.90] min^−1”.

In the case of `COc1ccc2c3c1O[C@H]1C(=O)CC[C@H]4[C@@H](C2)N(C)CC[C@]314` [Hydrocodone, hydrocodone], the lethal oral dose [7] is listed as 90 mg.

In the case of `CNCC1CCCCC1(O)c1cccc(O)c1` (stereo not shown) [M5, O,N-didesmethyltramadol], the Ki (μ-opioid receptor) is listed as 100 nM.

For `COc1ccc2c3c1O[C@H]1C(=O)CC[C@@]4(O)[C@@H](C2)N(C)CC[C@]314` [Oxycodone, oxycodone], the lethal oral dose [7] is listed as 40 mg.

For `CC[C@@H](c1cccc(O)c1)[C@@H](C)CN(C)C` [Tapentadol], the Ki [8] is listed as 480 nM and the “activity at the serotonin reuptake transporter” value [9] is listed as “no activity”.
